What was measured:
Type in all cases: cell-based
[1] = system: K562 neoplastic cells; experiment: Cytotoxic activity by flow cytometry with 7-AAD staining, K562; details: Homo sapiens, K562, 24 h, read-out: Cytotoxic activity IC50, K562
[2] = system: Jurkat neoplastic cells; experiment: Cytotoxic activity by flow cytometry with 7-AAD staining, Jurkat; details: Homo sapiens, 24 h, read-out: Cytotoxic activity IC50, Jurkat
[3] = system: U937 neoplastic cells; experiment: Cytotoxic activity by flow cytometry with 7-AAD staining, U937; details: Homo sapiens, U-937, 24 h, read-out: Cytotoxic activity IC50, U937
[4] = Cytotoxic activity by flow cytometry with 7-AAD staining, HEK293; details: human

Row | Compound | IC50 [1] | IC50 [2] | IC50 [3] | IC50 at 24 h [4]
1 | Cc1n[nH]c(C)c1CSc1ccccc1 [Compound 4a, 3,5-Dimethyl-4-[(phenylsulfanyl)methyl]-1H-pyrazole] | 2890 ± 30 nM | 2470 ± 30 nM | 2940 ± 30 nM | 3.8 ± 0.03 µM
2 | Cc1n[nH]c(C)c1CSCc1ccccc1 [Compound 4b, 4-[(Benzylsulfanyl)methyl]-3,5-dimethyl-1H-pyrazole] | 1980 ± 60 nM | 1240 ± 50 nM | 2150 ± 60 nM | 2.98 ± 0.06 µM
3 | Cc1n[nH]c(C)c1CSC1CCCCC1 [Compound 4c, 4-[(Cyclohexylsulfanyl)methyl]-3,5-dimethyl-1H-pyrazole] | 2160 ± 60 nM | 1490 ± 60 nM | 1980 ± 70 nM | 3.15 ± 0.05 µM
4 | Cc1n[nH]c(C)c1CSc1ccc(O)cc1 [Compound 4d, 4-{[(3,5-Dimethyl-1H-pyrazol-4-yl)methyl]sulfanyl}-phenol] | 2340 ± 10 nM | 1890 ± 20 nM | 2270 ± 20 nM | 3.34 ± 0.08 µM

Reference: PMC9052211 (RSC Advances, 2020)
